This is an account of results in patent publication US4069318A, “N^2 -Alkoxynaphthalenesulfonyl-L-argininamides and the pharmaceutically acceptable salts thereof” (Mitsubishi Chemical Industries Ltd., priority 1974, dated 1978).

The target of the first data set is T1, thrombin (Bos taurus, UniProt P00735).
T1 construct: bovine fibrinogen as substrate
In words: fibrinogen coagulation time (thrombin-induced). It counts as biochemical. The settings on record: bovine fibrinogen, thrombin 5 units/ml, borate saline buffer pH 7.4, 25° C; control 50-55 seconds; read-out: Concentration required to prolong the coagulation time by a factor of two. As to the method: Immediately after mixing, the reaction mixture was transferred from the ice bath to a bath maintained at 25° C. Coagulation times were taken as the period between the time of transference to the 25° C bath and the time of the first appearance of fibrin threads.
Consider `COc1cccc2c(S(=O)(=O)N[C@@H](CCCNC(=N)N)C(=O)N(CC(=O)O)Cc3ccccc3)cccc12` [Sample 18, N^2-(5-methoxy-1-naphthalenesulfonyl)-L-arginyl-N-benzylglycine], for which the IC (2-fold clotting time) worked out at 2 µM.

Tested on in the next data set: not listed separately
Put plainly: acute toxicity (LD50) by intraperitoneal administration in mice. The settings on record: mouse, in vivo, ip, mice (male, 20 g). From the text: On the other hand, LD50 values for N^2 -dansyl-N-butyl-L-argininamide and N^2 -dansyl-N-methyl-N-butyl-L-argininamide are 75 and 70 milligrams per kilogram, respectively.
Usually LD50 stands for the dose at which mortality reaches 50%. High values mean lower toxicity, low ones greater toxicity. On to `COc1cc2ccc(S(=O)(=O)N[C@@H](CCCNC(=N)N)C(=O)N(CC(=O)O)Cc3ccccc3)cc2cc1OC` [Sample 2, N^2-(6,7-dimethoxy-2-naphthalenesulfonyl)-L-arginyl-N-benzylglycine], for which the LD50 was greater than 1000 mg/kg.
As for `COc1cccc2c(S(=O)(=O)N[C@@H](CCCNC(=N)N)C(=O)N(CC(=O)O)Cc3ccccc3)cccc12` [Sample 18, N^2-(5-methoxy-1-naphthalenesulfonyl)-L-arginyl-N-benzylglycine], the LD50 was greater than 1000 mg/kg.
Compound `COc1ccc2cc(S(=O)(=O)N[C@@H](CCCNC(=N)N)C(=O)N(CC(=O)O)Cc3ccccc3)cc(OC)c2c1` [Sample 10, N^2-(4,6-dimethoxy-2-naphthalenesulfonyl)-L-arginyl-N-benzylglycine] displayed an LD50 greater than 1000 mg/kg.
`COc1cc2ccc(S(=O)(=O)N[C@@H](CCCNC(=N)N)C(=O)N(CCc3ccccc3)CC(=O)O)cc2cc1OC` [Sample 6, N^2-(6,7-dimethoxy-2-naphthalenesulfonyl)-L-arginyl-N-phenethylglycine] yielded a median lethal dose (LD50) greater than 1500 mg/kg.
`CCCCN(C)C(=O)[C@H](CCCNC(=N)N)NS(=O)(=O)c1cccc2c(N(C)C)cccc12` [N^2 -dansyl-N-methyl-N-butyl-L-argininamide, reference compound] gave an LD50 of 70 mg/kg.
For `CCCCNC(=O)[C@H](CCCNC(=N)N)NS(=O)(=O)c1cccc2c(N(C)C)cccc12` [N^2 -dansyl-N-butyl-L-argininamide, reference compound], the LD50 came out at 75 mg/kg.
